The subject of experiment [1] is CPIP rat model of CRPS. Description: Mechanical sensitivity (paw withdrawal threshold, von Frey) after topical application to the ipsilateral hind paw of CPIP rats. The format is in vivo. The settings on record: for maximum change in PWTs after topical application: dose response comparison, Lin-CafA has half of the linsidomine content. The text has this:
Topical drugs were formulated into ointment-type preparation using a composite, water-soluble polyethylene glycol base system consisting of 40% carbowax (PEG 3350) and 60% PEG 400 (both from Sigma Aldrich). The required amounts of the active ingredients were first weighted out and then added to the already molten base and mixed well. The vehicle treatment consisted of the same water-miscible base ointment without the addition of the active drugs. The Chronic Post-ischemic Pain (CPIP) rat model of CRPS was prepared by inducing prolonged hind paw ischemia and subsequent reperfusion, as previously described by Coderre et. al., Pain, 112(1):94-105, 2004. In short, male Long Evans rats (300-400 g; Charles River, QC, Canada) were anesthetized over a 3-hour period with a bolus (55 mg/kg, intraperitoneally [i.p.]) followed by chronic i.p. infusion (0.15 mL/hour) of sodium pentobarbital (Ceva Sante Animale, Libourne, France) for 2 hours. Following induction of anesthesia, a Nitrile 70 Durometer O-ring (O-rings West, Seattle, Wash.) with an internal diameter of 5.5-mm was slipped around the rat's left hind limb proximal to the ankle joint to effect a complete blockade of arterial blood flow ([…] al., Mol Pain, 4:49, 2008). The ring was left in place for 3 hours, and the rats recovered from anesthesia 30 to 60 minutes following reperfusion. Mechanical Sensitivity Testing As a measure of mechanical sensitivity, paw withdrawal threshold (PWT), was tested on plantar surface of the ipsilateral hind paw of the CPIP rats. The rats were first habituated for 30 minutes in the testing chambers. Nylon monofilaments (von Frey hairs) with thickness designed to apply stimulus intensity ranging between 1 g and 15 g were applied to the plantar surface of the rats' hind-paw. The filaments were applied for 10 seconds or until flexion reflex occurred. PWTs were determined using Chaplan's up and down method after testing with the filaments in either ascending (after negative response) or descending (after positive response) order to find the correct response pattern which was later matched with its corresponding 50% threshold of paw withdrawal (Chaplan et al., J Neurosci Methods, 53:55-63, 1994). Time course measurements of PWTs after vehicle and drug administration were subjected to a repeated measure analysis of variance (ANOVA). Pairwise comparison was performed between PWTs obtained from drug and vehicle treatment groups measured at matching post-treatment times using Tukey's HSD test. Cumulative anti-allodynic effect measured over 180-minute time course experiments was assessed by calculating the area under the curve (AUC) of PWT elevations plotted post-topical application. Comparisons of different drug doses versus vehicle were performed using repeated measure ANOVA followed by Tukey's HSD test. Dose response curves for comparison of anti-allodynic potency were plotted on a semi-log scale with the amount of drug used per application on the X-axis and the AUC of the 180-minute PWT measured or change in PWT obtained post-drug application on the Y-axis. The linear regression of the dose-response curves was then calculated, and their difference analysed using a 1-way ANOVA. The synthesized salts/co-crystals of […], clonidine and […] were formulated into a polyethylene based topical ointment and their analgesic efficacy and potency tested and compared to their parent drugs on the CPIP rat model of CRPS.

The subject of experiment [2] is CPIP rat model of CRPS. Description: Systemic absorption control: topical application to the uninjured contralateral paw, PWT of the injured CRPS paw. The format is in vivo. The note with it: concentration previously shown to relieve allodynia; PWT of injured paw at 30, 60, 120 and 180 minutes. The method, then:
Mechanical Sensitivity Testing As a measure of mechanical sensitivity, paw withdrawal threshold (PWT), was tested on plantar surface of the ipsilateral hind paw of the CPIP rats. The rats were first habituated for 30 minutes in the testing chambers. Nylon monofilaments (von Frey hairs) with thickness designed to apply stimulus intensity ranging between 1 g and 15 g were applied to the plantar surface of the rats' hind-paw. The filaments were applied for 10 seconds or until flexion reflex occurred. PWTs were determined using Chaplan's up and down method after testing with the filaments in either ascending (after negative response) or descending (after positive response) order to find the correct response pattern which was later matched with its corresponding 50% threshold of paw withdrawal (Chaplan et al., J Neurosci Methods, 53:55-63, 1994).
To assess for any contribution systemic absorption might have to the anti-allodynic effects seen with the novel salts and co-crystals, we performed a control experiment using contralateral topical administration of the compounds. A topical preparation of the salts and co-crystals at a concentration proven to produce anti-allodynia, was applied to the uninjured contralateral paw of the CRPS rats and the effect this had on the PWT of the injured CRPS paw was measured at 30, 60, 120 and 180 minutes post topical application. The PWT obtained at 30, 60, 120 and 180 minutes post topical application were then compared with the values obtained after direct topical application on the injured CPRS paw.

`O=C(O)/C=C/c1ccc(O)c(O)c1` [CafA, caffeic acid, reference compound]: in the experiment with CPIP rat model of CRPS [1] (CafA alone, FIG. 9C), the “anti-allodynic effects of topical administration on its own” value is given as “no anti-allodynic effects”. Further, in the experiment with CPIP rat model of CRPS [1] (CafA alone, three concentrations corresponding to W/W levels in the Pntx-CafA co-crystal, n=10), the “anti-allodynic effect upon topical application” value is recorded as “no anti-allodynic effect”.
For the molecule `Clc1cccc(Cl)c1NC1=NCCN1.O=C(O)CCCCC1CCSS1` [Clon-ALA, clonidine α-lipoate], the “rise in PWTs compared to vehicle” value in the experiment with CPIP rat model of CRPS [1] (0.025% w/w, 30 minutes post-application) was “significant rise in PWTs”. For the same molecule, the “duration of elevated PWTs” value in the experiment with CPIP rat model of CRPS [1] (0.05% w/w, compared to 0.025% (30 minutes)) is given as “stay significantly higher for twice as long”. Besides, in the experiment on CPIP rat model of CRPS [1] (Clon-ALA compared to Clon-HCl), the increase in potency is listed as approximately 2 ×. Moreover, the “leftward shift of x-intercept of the dose response curve” value in the experiment on CPIP rat model of CRPS [1] (Clon-ALA compared to Clon-HCl, p=0.04) turned out to be 0.265 log units. For the same molecule, the “relief of mechanical hypersensitivity” value in the experiment on CPIP rat model of CRPS [1] (topical Clon-ALA, different doses, n=7) is “dose-dependently, relieves mechanical hypersensitivity”. For the same molecule, in the experiment on CPIP rat model of CRPS [2], the “anti-allodynic effects when applied to the contralateral (uninjured) paw” value (“anti-allodynic effects when applied” for short) was “no anti-allodynic effects”.
In the case of `Nc1c[n+](N2CCOCC2)no1.O=C([O-])/C=C/c1ccc(O)c(O)c1` [Lin-CafA, linsidomine caffeate], the “elevation of PWTs compared to vehicle” value with CPIP rat model of CRPS [1] (1.6% w/w, 30, 60 and 120 minutes post-application) is “significantly elevates PWTs to non-allodynic values”. This molecule returned an increase in potency in the experiment on CPIP rat model of CRPS [1] (Lin-CafA compared to Lin-Cl) of approximately 2.5 fold. The “leftward shift of x-intercept of the dose response curve” value in the experiment with CPIP rat model of CRPS [1] (Lin-CafA compared to Lin-Cl, p=0.0026) was 0.3966 log units. The “efficacy and potency compared with linsidomine chloride” value with CPIP rat model of CRPS [1] (comparison of dose response curves) was “greater efficacy and potency”. Moreover, the “maximum change in PWTs after topical application” value in the experiment on CPIP rat model of CRPS [1] came out at 9.6±1.15. Further, in the experiment on CPIP rat model of CRPS [1] (topical W/W 1.6% and 0.8%, for as long as 120 minutes post-application, n=9), the “anti-allodynic effect compared to vehicle” value is “significant anti-allodynic effect”. For the same molecule, the “anti-allodynic effects when applied” value in the experiment with CPIP rat model of CRPS [2] is “no anti-allodynic effects”.
Regarding `O=C(O)c1ccc(O)c(O)c1` [PCA, protocatechuic acid, reference compound], in the experiment on CPIP rat model of CRPS [1] (PCA alone, topical, at the w/w doses contained in the Pntx-PCA co-crystal), the “anti-allodynic effect compared to vehicle” value is “does not produce significant anti-allodynic effects”.
`CC(=O)CCCCn1c(=O)c2c(ncn2C)n(C)c1=O.O=C(O)C=Cc1ccc(O)c(O)c1` [Pntx-CafA, pentoxifylline caffeate]: the “anti-allodynic potency in linear segment of dose-response curve” value in the experiment with CPIP rat model of CRPS [1] (Pntx-CafA 2% W/W and 1% W/W compared to Pntx alone) is listed as “more potent anti-allodynic effect”. The “elevation of PWTs compared to vehicle” value in the experiment on CPIP rat model of CRPS [1] (topical 2% W/W, 60, 120 and 180 minutes post application, n=10) was “significant and sustained elevation of PWTs”. The “anti-allodynic effect at higher dose” value in the experiment with CPIP rat model of CRPS [1] (topical 4% W/W compared to 2% W/W) is reported as “did not improve”.
`[NH-]c1c[n+](N2CCOCC2)no1` [linsidomine chloride, reference compound]: the “maximum change in PWTs after topical application” value with CPIP rat model of CRPS [1] is 6.23±0.99.
Take “pentoxifylline protocatechuate [Pntx-PCA]”: the “cumulative 3-hour anti-allodynic effect” value in the experiment on CPIP rat model of CRPS [1] (2.5% W/W Pntx-PCA (1.5% Pntx and 1% PCA) compared to 3.5% Pntx and 2% PCA W/W) is “significantly exceeds the effect achieved by double the amount of its constituent drugs”. Besides, in the experiment with CPIP rat model of CRPS [1] (Pntx-PCA compared to Pntx, from shift of log-dose response curve), the increase in potency was approximately 4 fold. In the experiment on CPIP rat model of CRPS [1] (Pntx-PCA compared to Pntx, p=0.0113), the “leftward shift of the log-dose response curve” value worked out at 0.59 log units. In addition, the “anti-allodynic effect (PWT) compared to ointment base alone” value with CPIP rat model of CRPS [1] (topical 5 and 10% W/W, ipsilateral hind paw, 30 to 60 minutes post-application, n=8) is reported as “significant anti-allodynic effects”. Besides, in the experiment with CPIP rat model of CRPS [2], the “anti-allodynic effects when applied” value is listed as “no anti-allodynic effects”.
pentoxifylline-gallic acid [Pntx-GallA]: the “anti-allodynic effects of topical formulations” value with CPIP rat model of CRPS [1] (Pntx-GallA, CRPS rats, overall) was “modest anti-allodynic effects”. In addition, the “difference in change in PWT versus respective doses of Pntx” value with CPIP rat model of CRPS [1] (different doses, 3 hours of testing following topical application) is given as “no significant measurable difference”. Also, the “improvement in PWT compared to vehicle” value in the experiment on CPIP rat model of CRPS [1] (observed at the only dose of 4% W/W, p<0.05) is listed as “significant improvement in PWT”.
